Assay results from patent publication EP0162494A1, “Process for the preparation of a 3-hydroxy-2,3-dihydrobenzisothiazole 1,1-dioxide and the use of this compound as a biocide and for preparing an ortho-sulphobenzimide” (AKZO N.V., priority 1984, dated 1985).
≈ marks a conversion by molar mass, not a printed value.

How the values were obtained:
Proteus mirabilis = experiment: MIC, modified DGHM dilution method; format: cell-based; settings: A.C. = active compound
Pseudomonas aeruginosa = experiment: MIC, modified DGHM dilution method; format: cell-based; settings: A.C. = active compound
Chaetomium globosum = experiment: MIC, modified DGHM dilution method; format: cell-based; settings: A.C. = active compound
Aspergillus niger = experiment: MIC, modified DGHM dilution method; format: cell-based; settings: A.C. = active compound
Saccharomyces cerevisiae = experiment: MIC, modified DGHM dilution method; format: cell-based; settings: A.C. = active compound
Paecillomyces varioti = experiment: MIC, modified DGHM dilution method; format: cell-based; settings: A.C. = active compound
Streptococcus faecalis = experiment: MIC, modified DGHM dilution method; format: cell-based; settings: Enterococcus faecalis, A.C. = active compound
Staphylococcus aureus = experiment: MIC, modified DGHM dilution method; format: cell-based; settings: A.C. = active compound
Trichoderma viride = experiment: MIC, modified DGHM dilution method; format: cell-based; settings: A.C. = active compound
Pyricularia oryzae = experiment: microbe, parasite or virus in culture; format: cell-based; settings: read-out: MIC-values
Candida albicans = experiment: MIC, modified DGHM dilution method; format: cell-based; settings: A.C. = active compound
Pellicularia sasaki = experiment: MIC, modified DGHM dilution method; format: cell-based; settings: A.C. = active compound
Escherichia coli = experiment: MIC, modified DGHM dilution method; format: cell-based; settings: A.C. = active compound
[1] = Acute oral toxicity in rats; format: in vivo; settings: for LD50 at 24 h / LD50 at 48 h / LD50 at 336 h: rat, in vivo, po; for LD50 at 24 h: after 24 hours; for LD50 at 48 h: after 48 hours; for LD50 at 336 h: after 14 days
[2] = tested on: sulfphate reducing bacteria; experiment: Bacteriostatic activity towards sulphate reducing bacteria; format: cell-based; settings: result in words
certain bacteria = experiment: Synergy with quaternary ammonium compounds; format: cell-based; settings: in combination with some quaternary ammonium compounds such as dimethylbenzyl coco-ammonium chloride or didecyldimethyl ammonium chloride
gram negative bacteria = experiment: MIC, DGHM dilution test method, by type of microorganism; format: cell-based; settings: read-out: minimum growth inhibiting concentration (MIC value)
Experimental: (§1) The minimum growth inhibiting concentration (MIC value) of 3-hydroxy-2,3-dihydrobenzisothiazole-1,1-dioxide for the different types of microorganisms was determined in conformity with the dilution test method of the "Deutsche Gesellschaft fUr Hygiene und Mikrobiologie" (DGHM) and are: […]

fungi = experiment: as above; format: cell-based; settings: read-out: minimum growth inhibiting concentration (MIC value)
Experimental: as §1

gram positive bacteria = experiment: as above; format: cell-based; settings: read-out: minimum growth inhibiting concentration (MIC value)
Experimental: as §1

yeasts = experiment: as above; format: cell-based; settings: read-out: minimum growth inhibiting concentration (MIC value)
Experimental: as §1

SMILES	MIC (Proteus mirabilis)	MIC (Pseudomonas aeruginosa)	MIC (Chaetomium globosum)	MIC (Aspergillus niger)	MIC (Saccharomyces cerevisiae)	MIC (Paecillomyces varioti)	MIC (Streptococcus faecalis)	MIC (Staphylococcus aureus)	MIC (Trichoderma viride)	MIC (Pyricularia oryzae)	MIC (Candida albicans)	MIC (Pellicularia sasaki)	MIC (Escherichia coli)	other results
COC1=NS(=O)(=O)c2ccccc21 [3-methoxy-1,2-benzisothiazole-1,1-dioxide, reference compound]	600 to 1200 µg/mL (≈ 3.04 to 6.08 mM)	> 1200 µg/mL	> 1200 µg/mL	> 1200 µg/mL	> 1200 µg/mL	600 to 1200 µg/mL (≈ 3.04 to 6.08 mM)	> 1200 µg/mL	> 1200 µg/mL	> 1200 µg/mL	> 1200 µg/mL	> 1200 µg/mL	600 to 1200 µg/mL (≈ 3.04 to 6.08 mM)	1200 µg/mL (≈ 6.08 mM)	–
O=S1(=O)NC(O)c2ccccc21 (stereo not drawn) [3-hydroxy-2,3-dihydrobenzisothiazole-1,1-dioxide]	600 to 1200 µg/mL (≈ 3.24 to 6.48 mM)	1200 µg/mL (≈ 6.48 mM)	37.5 to 75 µg/mL (≈ 0.202 to 0.405 mM)	75 to 150 µg/mL (≈ 0.405 to 0.81 mM)	300 to 600 µg/mL (≈ 1.62 to 3.24 mM)	18.8 to 37.5 µg/mL (≈ 0.102 to 0.202 mM)	600 to 1200 µg/mL (≈ 3.24 to 6.48 mM)	600 to 1200 µg/mL (≈ 3.24 to 6.48 mM)	75 to 150 µg/mL (≈ 0.405 to 0.81 mM)	150 to 200 µg/mL (≈ 0.81 to 1.08 mM)	600 to 1200 µg/mL (≈ 3.24 to 6.48 mM)	150 µg/mL (≈ 0.81 mM)	600 to 1200 µg/mL (≈ 3.24 to 6.48 mM)	LD50 at 24 h ([1]; ♀ rats): 860 mg/kg; LD50 at 48 h ([1]; ♀ rats): 860 mg/kg; LD50 at 336 h ([1]; ♀ rats): 860 mg/kg; LD50 at 24 h ([1]; ♂ + ♀ rats): 1070 mg/kg; LD50 at 48 h ([1]; ♂ + ♀ rats): 1020 mg/kg; LD50 at 336 h ([1]; ♂ + ♀ rats): 1020 mg/kg; LD50 at 24 h ([1]; ♂ rats): 1380 mg/kg; LD50 at 48 h ([1]; ♂ rats): 1220 mg/kg; LD50 at 336 h ([1]; ♂ rats): 1220 mg/kg; oral toxicity ([1]; result in words): low oral toxicity; bacteriostatic activity [2]: remarkable bacteriostatic activity; effect in combination (certain bacteria): synergistic effect; MIC (gram negative bacteria): 600 to 2400 µg/mL (≈ 3.24 to 13 mM); MIC (fungi): 37.5 to 600 µg/mL (≈ 0.202 to 3.24 mM); MIC (gram positive bacteria): 600 to 1200 µg/mL (≈ 3.24 to 6.48 mM); MIC (yeasts): 300 to 1200 µg/mL (≈ 1.62 to 6.48 mM)
